Results: publication PMC6016456, “Human DHEA sulfation requires direct interaction between PAPS synthase 2 and DHEA sulfotransferase SULT2A1” (The Journal of Biological Chemistry, 2018)

Target: T1, SULT2A1 (Homo sapiens, UniProt Q06520)
T1 construct: expressed from a SULT2A1 vector in HEK293 cells, co-expressed with PAPS synthase EGFP fusions
T1 sequence (Q06520 1-285): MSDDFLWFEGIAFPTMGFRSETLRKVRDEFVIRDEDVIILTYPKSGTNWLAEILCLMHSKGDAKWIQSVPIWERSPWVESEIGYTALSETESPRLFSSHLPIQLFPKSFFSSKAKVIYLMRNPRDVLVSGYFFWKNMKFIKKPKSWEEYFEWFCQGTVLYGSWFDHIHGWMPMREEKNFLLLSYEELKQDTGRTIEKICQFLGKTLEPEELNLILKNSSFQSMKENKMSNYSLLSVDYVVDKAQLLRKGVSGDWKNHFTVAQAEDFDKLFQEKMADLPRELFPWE
Assay: DHEA sulfation assay in transfected HEK293 cells
Assay type: cell-based
Conditions: co-expressed PAPS synthase supplies PAPS

C[C@]12CC[C@H](O)CC1=CC[C@@H]1[C@@H]2CC[C@]2(C)C(=O)CC[C@@H]12 [DHEA]
conversion rate: co-express PAPS synthase protein variants with cytoplasmic SULT2A1
